Assay results published in patent publication US20160175224A1, “ANTIPERSPIRANT COMPOSITION” (priority 2014, published 2016).

System: subjects' underarms
Test: In vivo study of eight-hour antiperspirant efficacy (FDA Guidelines for Effectiveness Testing of OTC Antiperspirant Drug Products, hot room, weighed pads)
Design: species or system human
Settings: for Antiperspirant activity against FDA Guidelines success criteria (minimum of 20% sweat reduction in at least 50% volunteers): eight-hour efficacy, day 30 of application period; for % of subjects with reduction in relation to control / Average % of sweat reduction (mg): roll-on compositions of Examples 7-9 applied daily to one underarm for 30 days, eight hours after, hot room 37.8° C.; for % of subjects with reduction in relation to control: other underarm untreated control, 30-40% RH, 80 minutes, fifteen subjects per composition; for Average % of sweat reduction (mg): relative to untreated control underarm, pad weights
Procedure: An in vivo study of the eight-hour antiperspirant efficacy of the compositions of Examples 7, 8 and 9 was performed as follows using the US FOOD AND DRUG ADMINISTRATION Guidelines for Effectiveness Testing of OTC Antiperspirant Drug Products, 2003. Example 7 was comparative, as indicated above.
Fifteen subjects were used to test each composition. Subjects were first subjected to a 21-day conditioning period, which began with a 14 day wash out period. During 14 day wash out period, the subjects used a standard bar soap and bacteriostatic deodorant supplied by the institute running the study. […] Following this, from day 15 to day 21 the subjects were instructed to use only standard soap and discontinue the bacteriostatic deodorant.
During the conditioning period, subjects were instructed and supervised by a trained technician to wash their underarms according to the following procedure: a) wash one of the underarms for 10 seconds with an aqueous solution of standard soap 2.0%; b) rinse thoroughly with running water until the soap is completely removed; c) dry the underarm with a paper towel; and d) repeat the procedure with the other underarm.
After the wash out period was completed, each subject was checked for unauthorized use of antiperspirant products during the conditioning period using a cotton swab in the underarms.
Next, a 30 day application period began. 150 cm^2, randomly distributed areas were marked on each subjects' underarm. Test samples were then applied to one underarm of each subject, while the other underarm was untreated as a control every day during the 30 day application period. Subjects waxed or shaved their underarms every Friday evening.
On day 30 of the 30 day application period, each subject was provided with a 100% cotton t-shirt previously washed with water and neutral soap without fragrance and again washed only with water. The subjects were instructed to wear the T-shirts for eight hours.
After eight hours, the subjects were placed in a room at 37.8° C.±1° C. and relative humidity between 30% and 40% for 80 minutes. After 40 minutes in the hot room, pads previously weighed and stored in closed polyethylene bags were removed from the bags and placed immediately onto the subjects' underarms, and then replaced every 20 minutes. Subjects ingested 200 mL of water when entering the hot room and also 40 minutes later in order to maintain the internal level of hydration, allowing the sweat to flow freely and evidencing only the effects of the formulation of the product tested. The initial 40 minute period was considered as an acclimatization period.
Used pads were collected every 20 minutes and weighed. The weights of the pads pre- and post-use were compared according to the FDA Guidelines using statistical analysis with the Wilcoxon Signed Rank test (FDA protocol) and the Student-t test paired with the unilateral hypothesis of improvement for sweating assessment. The confidence level considered in the comparative analysis was 95%. Software: XLSTAT 2013 and MINITAB 14.

Substance | Antiperspirant activity against FDA Guidelines success criteria (minimum of 20% sweat reduction in at least 50% volunteers) | % of subjects with reduction in relation to control | Average % of sweat reduction (mg) | Average % of sweat reduction (mg) (listed as acetyl hexapeptide-8)
dipeptide diaminobutyroyl benzylamide diacetate | confirms antiperspirant activity | 92.3% | 25.6% | –
acetyl hexapeptide-8 [reference compound] | did not meet success criteria | 66.7% | 8.0% | 8.0%
acetyl octapeptide-3 | confirms antiperspirant activity | 81.8% | 20.7% | –
